# Measurements: US20060069132A1, “Azolecarboxamide herbicides” (priority 2004, published 2006)
# Where two headings read alike, the source gives them in different places.
# Tests used:
# [1] = test system: cocklebur; assay: Test B pre-/postemergence herbicide test; type: in vivo, Xanthium strumarium; settings: Xanthium strumarium; for pest or weed control at 125 g/ha: 125 g ai/ha; for pest or weed control at 500 g/ha: 500 g ai/ha
# How it was run: (§1)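 Herbicidal effect was judged by eye on a 0–100 scale after plants stood 13 to 15 days in the greenhouse following pre- or postemergence treatment with surfactant-containing formulations.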
# [2] = test system: lambsquarters; assay: Test B pre-/postemergence herbicide test; type: in vivo, Chenopodium album; settings: Chenopodium album, 336 h; for pest or weed control at 125 g/ha: 125 g ai/ha; for pest or weed control at 500 g/ha: 500 g ai/ha
# How it was run: (§2)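 Visual rating, 0 (no effect) to 100 (complete control), versus untreated controls after 13–15 d in greenhouse. Pre- and postemergence applications (postemergence plants 2–18 cm, 1–4 leaves); flooded paddy arm at 2-leaf stage. Compounds in non-phytotoxic solvent plus surfactant.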
# [3] = test system: Surinam grass; assay: Test B pre-/postemergence herbicide test; type: in vivo, Urochloa decumbens; settings: Urochloa decumbens; for pest or weed control at 125 g/ha: 125 g ai/ha; for pest or weed control at 500 g/ha: 500 g ai/ha
# How it was run: as §2
# [4] = test system: large crabgrass; assay: Test B pre-/postemergence herbicide test; type: in vivo, Digitaria sanguinalis; settings: Digitaria sanguinalis; for pest or weed control at 125 g/ha: 125 g ai/ha; for pest or weed control at 500 g/ha: 500 g ai/ha
# How it was run: as §2
# [5] = test system: barnyardgrass; assay: Test B pre-/postemergence herbicide test; type: in vivo, Echinochloa crus-galli; settings: Echinochloa crus-galli; for pest or weed control at 125 g/ha: 125 g ai/ha; for pest or weed control at 500 g/ha: 500 g ai/ha
# How it was run: as §1
# [6] = test system: blackgrass; assay: Test B postemergence herbicide test; type: in vivo, Alopecurus myosuroides; settings: Alopecurus myosuroides, post-emergence, 336 h, postemergence, visual rating, scale 0 (no effect) to 100 (complete control), read-out: Blackgrass plant response rating
# How it was run: (§3)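 Treated at 2-leaf (paddy) or 1–4-leaf, 2–18 cm (postemergence); greenhouse 13–15 d; visual score vs control, 0 none to 100 complete control; dash = not tested.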
# [7] = test system: velvetleaf; assay: Test B pre-/postemergence herbicide test; type: in vivo, Abutilon theophrasti; settings: Abutilon theophrasti, 336 h; for pest or weed control at 125 g/ha: 125 g ai/ha; for pest or weed control at 500 g/ha: 500 g ai/ha
# How it was run: as §2
# [8] = test system: corn; assay: Test B pre-/postemergence herbicide test; type: in vivo, Zea mays; settings: Zea mays
# How it was run: as §2
# [9] = test system: morningglory; assay: Test B pre-/postemergence herbicide test; type: in vivo, Ipomoea coccinea; settings: Ipomoea, 336 h; for pest or weed control at 125 g/ha: 125 g ai/ha; for pest or weed control at 500 g/ha: 500 g ai/ha
# How it was run: as §1
# [10] = test system: wheat; assay: Test B postemergence herbicide test; type: in vivo, Triticum aestivum; settings: Triticum aestivum, post-emergence, 336 h, postemergence, 500 g ai/ha; visual rating, scale 0 (no effect) to 100 (complete control); read-out: Wheat plant response rating
# How it was run: (§4)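 After treating 2-leaf paddy plants or 2–18 cm postemergence plants (1 to 4 leaves) with formulated chemical, researchers kept them in a greenhouse for 13–15 days. Effects were judged visually versus controls: 0 indicates none, 100 total control.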
# [11] = test system: small flower umbrella sedge; assay: Test B flooded paddy test; type: in vivo, Cyperus difformis; settings: Cyperus difformis, 336 h, 1000 g ai/ha, visual rating, scale 0 to 100 (0 no effect, 100 complete control), 13 to 15 days, read-out: Sedge, Umbrella plant response rating
# How it was run: as §3
# [12] = test system: wild oat; assay: Test B postemergence herbicide test; type: in vivo, Avena fatua; settings: Avena fatua, post-emergence, 336 h, postemergence, visual rating, scale 0 (no effect) to 100 (complete control), read-out: Oat, Wild plant response rating
# How it was run: as §4
# [13] = test system: pigweed; assay: Test B pre-/postemergence herbicide test; type: in vivo, Amaranthus retroflexus; settings: Amaranthus retroflexus, 336 h; for pest or weed control at 125 g/ha: 125 g ai/ha; for pest or weed control at 500 g/ha: 500 g ai/ha
# How it was run: as §2
# [14] = test system: giant foxtail; assay: Test B pre-/postemergence herbicide test; type: in vivo, Setaria faberi; settings: Setaria faberi, 336 h; for pest or weed control at 125 g/ha: 125 g ai/ha; for pest or weed control at 500 g/ha: 500 g ai/ha
# How it was run: as §2
# [15] = post-emergence, postemergence, visual rating, scale 0 (no effect) to 100 (complete control), read-out: Cocklebur plant response rating
# [16] = post-emergence, postemergence, visual rating, scale 0 (no effect) to 100 (complete control), read-out: Lambsquarters plant response rating
# [17] = post-emergence, postemergence, visual rating, scale 0 (no effect) to 100 (complete control), read-out: Surinam Grass plant response rating
# [18] = post-emergence, postemergence, visual rating, scale 0 (no effect) to 100 (complete control), read-out: Crabgrass, Large plant response rating
# [19] = post-emergence, postemergence, visual rating, scale 0 (no effect) to 100 (complete control), read-out: Barnyardgrass plant response rating
# [20] = post-emergence, postemergence, visual rating, scale 0 (no effect) to 100 (complete control), read-out: Velvetleaf plant response rating
# [21] = post-emergence, postemergence, visual rating, scale 0 (no effect) to 100 (complete control), read-out: Morningglory plant response rating
# [22] = post-emergence, postemergence, visual rating, scale 0 (no effect) to 100 (complete control), read-out: Pigweed plant response rating
# [23] = post-emergence, postemergence, visual rating, scale 0 (no effect) to 100 (complete control), read-out: Foxtail, Giant plant response rating
smiles,measurement,setting,value
"CCn1nc(C(C)(C)C)cc1C(=O)Nc1cc(C(=O)N(C)C)ccn1 [Compound 156, 2-[[[3-(1,1-dimethylethyl)-1-ethyl-1H-pyrazol-5-yl]carbonyl]amino]-N,N-dimethyl-4-pyridinecarboxamide]",pest or weed control at 125 g/ha,[1]; [15],40%
same,pest or weed control at 500 g/ha,[1]; [15],80%
same,pest or weed control at 500 g/ha,"[1]; pre-emergence, visual rating 0-100, 0 no effect, 100 complete control, read-out: Plant response rating, Cocklebur",100%
same,pest or weed control at 125 g/ha,"[1]; pre-emergence, preemergence, 0 to 100 scale, 0 is no effect, 100 is complete control, read-out: Plant response rating, Cocklebur",100%
same,pest or weed control at 125 g/ha,[2]; [16],60%
same,pest or weed control at 500 g/ha,[2]; [16],80%
same,pest or weed control at 500 g/ha,"[2]; pre-emergence, visual rating 0-100, 0 no effect, 100 complete control, read-out: Plant response rating, Lambsquarters",100%
same,pest or weed control at 125 g/ha,"[2]; pre-emergence, preemergence, 0 to 100 scale, 0 is no effect, 100 is complete control, read-out: Plant response rating, Lambsquarters",100%
same,pest or weed control at 125 g/ha,[3]; [17],10%
same,pest or weed control at 500 g/ha,[3]; [17],20%
same,pest or weed control at 500 g/ha,"[3]; pre-emergence, visual rating 0-100, 0 no effect, 100 complete control, read-out: Plant response rating, Surinam Grass",100%
same,pest or weed control at 125 g/ha,"[3]; pre-emergence, preemergence, 0 to 100 scale, 0 is no effect, 100 is complete control, read-out: Plant response rating, Surinam Grass",90%
same,pest or weed control at 125 g/ha,[4]; [18],10%
same,pest or weed control at 500 g/ha,[4]; [18],10%
same,pest or weed control at 500 g/ha,"[4]; pre-emergence, visual rating 0-100, 0 no effect, 100 complete control, read-out: Plant response rating, Crabgrass, Large",100%
same,pest or weed control at 125 g/ha,"[4]; pre-emergence, preemergence, 0 to 100 scale, 0 is no effect, 100 is complete control, read-out: Plant response rating, Crabgrass, Large",90%
same,pest or weed control at 125 g/ha,[5]; [19],10%
same,pest or weed control at 500 g/ha,[5]; [19],40%
same,pest or weed control at 500 g/ha,"[5]; pre-emergence, visual rating 0-100, 0 no effect, 100 complete control, read-out: Plant response rating, Barnyardgrass",100%
same,pest or weed control at 125 g/ha,"[5]; pre-emergence, preemergence, 0 to 100 scale, 0 is no effect, 100 is complete control, read-out: Plant response rating, Barnyardgrass",100%
same,pest or weed control at 125 g/ha,[6]; 125 g ai/ha,30%
same,pest or weed control at 500 g/ha,[6]; 500 g ai/ha,60%
same,pest or weed control at 125 g/ha,[7]; [20],60%
same,pest or weed control at 500 g/ha,[7]; [20],90%
same,pest or weed control at 500 g/ha,"[7]; pre-emergence, visual rating 0-100, 0 no effect, 100 complete control, read-out: Plant response rating, Velvetleaf",100%
same,pest or weed control at 125 g/ha,"[7]; pre-emergence, preemergence, 0 to 100 scale, 0 is no effect, 100 is complete control, read-out: Plant response rating, Velvetleaf",100%
same,plant injury at 125 g/ha,"[8]; post-emergence, postemergence, 125 g ai/ha, visual rating, scale 0 (no effect) to 100 (complete control), read-out: Corn plant response rating",0%
same,plant injury at 500 g/ha,"[8]; post-emergence, postemergence, 500 g ai/ha, visual rating, scale 0 (no effect) to 100 (complete control), read-out: Corn plant response rating",10%
same,"Corn plant response rating (crop injury, 0 = no effect, 100 = complete kill) at 500 g/ha","[8]; pre-emergence, 500 g ai/ha, visual rating 0-100, 0 no effect, 100 complete control",80%
same,"Corn plant response rating (crop injury, 0 = no effect, 100 = complete kill) at 125 g/ha","[8]; pre-emergence, preemergence, 125 g ai/ha, 0 to 100 scale, 0 is no effect, 100 is complete control",40%
same,pest or weed control at 125 g/ha,[9]; [21],20%
same,pest or weed control at 500 g/ha,[9]; [21],50%
same,pest or weed control at 500 g/ha,"[9]; pre-emergence, visual rating 0-100, 0 no effect, 100 complete control, read-out: Plant response rating, Morningglory",100%
same,pest or weed control at 125 g/ha,"[9]; pre-emergence, preemergence, 0 to 100 scale, 0 is no effect, 100 is complete control, read-out: Plant response rating, Morningglory",60%
same,plant injury at 500 g/ha,[10],20%
same,pest or weed control at 1000 g/ha,[11],90%
same,pest or weed control at 125 g/ha,[12]; 125 g ai/ha,40%
same,pest or weed control at 500 g/ha,[12]; 500 g ai/ha,40%
same,pest or weed control at 125 g/ha,[13]; [22],30%
same,pest or weed control at 500 g/ha,[13]; [22],60%
same,pest or weed control at 500 g/ha,"[13]; pre-emergence, visual rating 0-100, 0 no effect, 100 complete control, read-out: Plant response rating, Pigweed",100%
same,pest or weed control at 125 g/ha,"[13]; pre-emergence, preemergence, 0 to 100 scale, 0 is no effect, 100 is complete control, read-out: Plant response rating, Pigweed",100%
same,pest or weed control at 125 g/ha,[14]; [23],20%
same,pest or weed control at 500 g/ha,[14]; [23],40%
same,pest or weed control at 500 g/ha,"[14]; pre-emergence, visual rating 0-100, 0 no effect, 100 complete control, read-out: Plant response rating, Foxtail, Giant",100%
same,pest or weed control at 125 g/ha,"[14]; pre-emergence, preemergence, 0 to 100 scale, 0 is no effect, 100 is complete control, read-out: Plant response rating, Foxtail, Giant",100%
